From ChEMBL document CHEMBL5291721, “A preclinical secondary pharmacology resource illuminates target-adverse drug reaction associations of marketed drugs” (Nat Commun, 2023)

Assays:
Thromboxane A2 receptor = molecular target: T1, Thromboxane A2 receptor (Homo sapiens, UniProt P21731); type: functional, cell-based
T1 sequence (P21731 whole entry): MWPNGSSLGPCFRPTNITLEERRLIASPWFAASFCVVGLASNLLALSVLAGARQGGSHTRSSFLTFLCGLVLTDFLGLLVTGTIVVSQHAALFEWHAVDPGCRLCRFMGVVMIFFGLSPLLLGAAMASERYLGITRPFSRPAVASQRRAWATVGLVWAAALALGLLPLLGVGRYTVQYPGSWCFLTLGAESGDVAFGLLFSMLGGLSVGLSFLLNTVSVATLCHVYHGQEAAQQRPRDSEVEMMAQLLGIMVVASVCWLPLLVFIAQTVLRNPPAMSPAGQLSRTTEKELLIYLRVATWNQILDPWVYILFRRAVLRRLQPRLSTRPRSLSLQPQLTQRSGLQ

Acetylcholinesterase = Acetylcholinesterase (Homo sapiens, UniProt P22303); type: functional
Histamine H3 receptor = Histamine H3 receptor (Homo sapiens, UniProt Q9Y5N1)
Sequence of Histamine H3 receptor (Q9Y5N1 whole entry): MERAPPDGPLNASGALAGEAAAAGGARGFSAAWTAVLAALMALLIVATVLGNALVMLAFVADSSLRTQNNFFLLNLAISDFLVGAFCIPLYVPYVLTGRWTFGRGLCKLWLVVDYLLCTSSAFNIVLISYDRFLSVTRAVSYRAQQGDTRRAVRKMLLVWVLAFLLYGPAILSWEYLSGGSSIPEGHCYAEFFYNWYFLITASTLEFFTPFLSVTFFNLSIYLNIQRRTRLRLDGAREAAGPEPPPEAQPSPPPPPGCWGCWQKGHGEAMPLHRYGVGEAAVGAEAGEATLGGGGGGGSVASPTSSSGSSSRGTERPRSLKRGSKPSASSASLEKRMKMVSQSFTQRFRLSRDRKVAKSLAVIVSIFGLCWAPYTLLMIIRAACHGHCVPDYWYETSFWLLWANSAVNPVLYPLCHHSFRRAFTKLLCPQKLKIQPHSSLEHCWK

[1] = molecular target: Prostaglandin G/H synthase 1 (Homo sapiens, UniProt P23219); type: functional
Sequence of Prostaglandin G/H synthase 1 (P23219 whole entry): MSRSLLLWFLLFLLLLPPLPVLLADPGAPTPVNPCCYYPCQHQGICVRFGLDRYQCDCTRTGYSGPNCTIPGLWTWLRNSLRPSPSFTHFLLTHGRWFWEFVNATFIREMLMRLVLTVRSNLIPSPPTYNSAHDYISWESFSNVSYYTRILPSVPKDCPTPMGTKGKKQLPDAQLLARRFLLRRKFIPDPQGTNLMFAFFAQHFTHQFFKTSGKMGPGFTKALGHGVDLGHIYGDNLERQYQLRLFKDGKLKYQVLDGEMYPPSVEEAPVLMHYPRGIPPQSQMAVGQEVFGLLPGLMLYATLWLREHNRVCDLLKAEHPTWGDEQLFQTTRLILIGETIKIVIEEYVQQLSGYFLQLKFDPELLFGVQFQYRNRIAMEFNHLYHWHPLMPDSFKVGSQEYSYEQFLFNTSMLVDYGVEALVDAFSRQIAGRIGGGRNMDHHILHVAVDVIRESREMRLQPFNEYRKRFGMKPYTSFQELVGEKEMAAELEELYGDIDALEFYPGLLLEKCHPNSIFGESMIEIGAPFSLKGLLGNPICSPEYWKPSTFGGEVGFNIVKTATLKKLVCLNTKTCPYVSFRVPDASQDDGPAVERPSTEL

D(3) dopamine receptor = D(3) dopamine receptor (Homo sapiens, UniProt P35462)
Sequence of D(3) dopamine receptor (P35462 whole entry): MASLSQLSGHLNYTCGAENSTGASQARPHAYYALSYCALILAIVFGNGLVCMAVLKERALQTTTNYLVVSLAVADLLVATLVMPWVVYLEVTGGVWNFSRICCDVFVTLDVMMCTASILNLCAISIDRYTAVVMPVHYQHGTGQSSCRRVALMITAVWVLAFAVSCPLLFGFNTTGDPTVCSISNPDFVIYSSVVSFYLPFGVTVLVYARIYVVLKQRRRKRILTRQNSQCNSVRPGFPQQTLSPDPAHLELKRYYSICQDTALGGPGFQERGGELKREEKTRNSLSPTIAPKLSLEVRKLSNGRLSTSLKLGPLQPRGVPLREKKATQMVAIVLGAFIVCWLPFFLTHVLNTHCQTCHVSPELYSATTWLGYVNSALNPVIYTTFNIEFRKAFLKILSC

[2] = molecular target: cGMP-inhibited 3',5'-cyclic phosphodiesterase 3A (Homo sapiens, UniProt Q14432); type: functional
Sequence of cGMP-inhibited 3',5'-cyclic phosphodiesterase 3A (Q14432 whole entry): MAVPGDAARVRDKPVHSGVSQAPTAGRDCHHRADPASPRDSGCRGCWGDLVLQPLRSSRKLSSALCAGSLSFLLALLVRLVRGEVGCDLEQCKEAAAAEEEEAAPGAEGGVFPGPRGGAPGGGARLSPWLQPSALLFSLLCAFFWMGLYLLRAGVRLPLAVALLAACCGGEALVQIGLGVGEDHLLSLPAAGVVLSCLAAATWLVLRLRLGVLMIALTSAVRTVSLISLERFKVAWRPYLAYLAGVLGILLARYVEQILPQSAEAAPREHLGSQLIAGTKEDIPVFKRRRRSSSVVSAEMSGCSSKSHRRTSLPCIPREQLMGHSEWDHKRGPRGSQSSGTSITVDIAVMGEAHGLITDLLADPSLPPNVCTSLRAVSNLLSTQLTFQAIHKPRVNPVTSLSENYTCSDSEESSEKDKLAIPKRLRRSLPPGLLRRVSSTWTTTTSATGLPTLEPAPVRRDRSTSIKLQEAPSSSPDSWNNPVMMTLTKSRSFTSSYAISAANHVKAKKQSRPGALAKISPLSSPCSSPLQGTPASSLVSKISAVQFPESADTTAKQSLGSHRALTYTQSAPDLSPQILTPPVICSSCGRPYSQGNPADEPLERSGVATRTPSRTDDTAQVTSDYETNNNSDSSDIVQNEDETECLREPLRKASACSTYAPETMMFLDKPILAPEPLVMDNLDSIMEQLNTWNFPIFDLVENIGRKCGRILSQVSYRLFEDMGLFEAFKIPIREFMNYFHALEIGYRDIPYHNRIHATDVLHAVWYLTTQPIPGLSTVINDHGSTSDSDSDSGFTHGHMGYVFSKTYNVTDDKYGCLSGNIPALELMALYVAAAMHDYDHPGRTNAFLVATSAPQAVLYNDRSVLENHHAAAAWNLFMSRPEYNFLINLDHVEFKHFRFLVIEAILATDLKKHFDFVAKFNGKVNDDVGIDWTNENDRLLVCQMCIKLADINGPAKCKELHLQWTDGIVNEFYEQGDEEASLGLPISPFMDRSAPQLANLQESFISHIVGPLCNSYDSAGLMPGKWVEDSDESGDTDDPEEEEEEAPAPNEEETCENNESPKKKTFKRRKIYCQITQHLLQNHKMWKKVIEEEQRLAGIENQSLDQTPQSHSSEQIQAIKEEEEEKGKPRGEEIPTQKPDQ

[3] = molecular target: Gamma-aminobutyric acid receptor subunit alpha-1 (Rattus norvegicus, UniProt P62813)
Sequence of Gamma-aminobutyric acid receptor subunit alpha-1 (P62813 whole entry): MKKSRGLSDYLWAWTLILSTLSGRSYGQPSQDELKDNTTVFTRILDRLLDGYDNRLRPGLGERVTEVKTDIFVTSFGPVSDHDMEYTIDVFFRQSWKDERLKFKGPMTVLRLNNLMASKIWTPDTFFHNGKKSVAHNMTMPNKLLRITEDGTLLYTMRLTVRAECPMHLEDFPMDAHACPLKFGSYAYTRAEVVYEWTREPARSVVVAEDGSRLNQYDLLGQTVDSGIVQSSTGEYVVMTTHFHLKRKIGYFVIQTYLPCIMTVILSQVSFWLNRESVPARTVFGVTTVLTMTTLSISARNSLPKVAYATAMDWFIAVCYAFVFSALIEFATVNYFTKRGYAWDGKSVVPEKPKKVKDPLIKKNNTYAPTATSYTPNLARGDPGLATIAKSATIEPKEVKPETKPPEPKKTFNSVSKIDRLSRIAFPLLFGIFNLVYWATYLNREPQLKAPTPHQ

[4] = molecular target: 5-hydroxytryptamine receptor 2B (Homo sapiens, UniProt P41595); type: functional, cell-based
Sequence of 5-hydroxytryptamine receptor 2B (P41595 whole entry): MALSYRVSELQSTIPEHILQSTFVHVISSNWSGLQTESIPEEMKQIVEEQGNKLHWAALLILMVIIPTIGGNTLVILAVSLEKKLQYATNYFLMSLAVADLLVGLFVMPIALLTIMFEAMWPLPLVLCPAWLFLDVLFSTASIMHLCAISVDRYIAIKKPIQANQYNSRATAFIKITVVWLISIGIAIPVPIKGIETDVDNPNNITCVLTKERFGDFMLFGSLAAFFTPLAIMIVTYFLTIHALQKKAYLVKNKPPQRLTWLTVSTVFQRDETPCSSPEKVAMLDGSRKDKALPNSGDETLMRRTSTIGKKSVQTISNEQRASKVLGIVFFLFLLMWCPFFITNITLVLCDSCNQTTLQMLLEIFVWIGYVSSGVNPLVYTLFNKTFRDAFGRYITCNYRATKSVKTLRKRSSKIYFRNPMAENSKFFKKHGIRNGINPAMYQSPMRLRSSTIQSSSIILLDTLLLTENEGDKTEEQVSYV

[5] = molecular target: T2, 5-hydroxytryptamine receptor 1A (Homo sapiens, UniProt P08908)
T2 sequence (P08908 whole entry): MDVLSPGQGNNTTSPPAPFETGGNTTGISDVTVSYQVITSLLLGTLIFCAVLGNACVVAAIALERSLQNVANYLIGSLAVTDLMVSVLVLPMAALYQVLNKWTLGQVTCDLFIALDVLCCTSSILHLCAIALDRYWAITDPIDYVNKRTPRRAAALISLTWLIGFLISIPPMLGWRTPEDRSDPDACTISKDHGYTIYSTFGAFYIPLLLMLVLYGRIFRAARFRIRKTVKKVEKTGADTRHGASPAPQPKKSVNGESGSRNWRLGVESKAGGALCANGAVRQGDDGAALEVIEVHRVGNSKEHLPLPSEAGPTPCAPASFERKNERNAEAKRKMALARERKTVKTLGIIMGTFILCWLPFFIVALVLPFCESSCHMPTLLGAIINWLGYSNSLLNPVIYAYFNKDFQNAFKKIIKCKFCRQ

[6] = molecular target: Voltage-gated inwardly rectifying potassium channel KCNH2 (Homo sapiens, UniProt Q12809); type: functional; details: read-out: AC50
Sequence of Voltage-gated inwardly rectifying potassium channel KCNH2 (Q12809 whole entry): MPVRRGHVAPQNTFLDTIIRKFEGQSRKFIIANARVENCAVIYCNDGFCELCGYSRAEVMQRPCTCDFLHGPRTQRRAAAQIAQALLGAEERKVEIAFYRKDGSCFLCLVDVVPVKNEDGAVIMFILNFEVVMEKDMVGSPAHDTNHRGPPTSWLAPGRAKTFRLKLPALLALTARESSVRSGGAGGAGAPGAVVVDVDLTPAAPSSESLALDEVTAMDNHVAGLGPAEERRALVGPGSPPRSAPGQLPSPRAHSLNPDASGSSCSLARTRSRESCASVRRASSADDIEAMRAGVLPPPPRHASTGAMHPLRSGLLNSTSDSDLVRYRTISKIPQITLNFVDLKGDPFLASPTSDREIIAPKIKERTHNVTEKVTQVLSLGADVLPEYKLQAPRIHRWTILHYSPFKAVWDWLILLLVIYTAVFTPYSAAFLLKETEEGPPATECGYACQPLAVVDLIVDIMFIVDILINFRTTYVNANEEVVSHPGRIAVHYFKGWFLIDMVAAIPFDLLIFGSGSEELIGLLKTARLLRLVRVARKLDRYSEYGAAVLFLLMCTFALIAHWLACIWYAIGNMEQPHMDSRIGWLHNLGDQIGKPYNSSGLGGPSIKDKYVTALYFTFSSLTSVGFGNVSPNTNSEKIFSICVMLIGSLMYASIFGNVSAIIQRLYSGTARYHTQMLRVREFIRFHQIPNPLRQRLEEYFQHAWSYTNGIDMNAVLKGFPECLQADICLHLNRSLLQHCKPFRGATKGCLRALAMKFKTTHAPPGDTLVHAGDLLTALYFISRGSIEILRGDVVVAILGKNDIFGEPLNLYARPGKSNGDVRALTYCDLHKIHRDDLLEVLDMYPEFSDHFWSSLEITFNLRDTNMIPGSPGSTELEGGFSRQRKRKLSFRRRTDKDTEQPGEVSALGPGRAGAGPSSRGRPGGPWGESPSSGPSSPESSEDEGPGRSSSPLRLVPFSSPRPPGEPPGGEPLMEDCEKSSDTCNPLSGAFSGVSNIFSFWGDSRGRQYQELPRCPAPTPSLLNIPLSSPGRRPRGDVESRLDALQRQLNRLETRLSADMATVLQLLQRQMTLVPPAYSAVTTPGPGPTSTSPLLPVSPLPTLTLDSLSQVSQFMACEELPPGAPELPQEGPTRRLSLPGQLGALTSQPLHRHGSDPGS
Also: assay procedure not described here.

## C=CCCCCCCCCC(=O)O [UNDECYLENIC ACID]
Thromboxane A2 receptor
  AC50: > 30 µM
Acetylcholinesterase
  AC50: > 30 µM
Histamine H3 receptor
  AC50: > 30 µM
[1]
  AC50: > 30 µM
D(3) dopamine receptor
  AC50: > 30 µM
[2]
  AC50: > 30 µM
[3]
  AC50: > 30 µM
[4]
  AC50: > 30 µM
[5]
  AC50: > 30 µM

## CCC(CC)(CC(=O)Nc1cccc(/C=C/c2nc(C3CCC3)cs2)c1)C(=O)O
Thromboxane A2 receptor
  AC50: > 3 µM
Acetylcholinesterase
  AC50: > 30 µM
Histamine H3 receptor
  AC50: > 30 µM
[1]
  AC50: > 30 µM
D(3) dopamine receptor
  AC50: > 30 µM
[2]
  AC50: > 30 µM
[3]
  AC50: > 30 µM
[4]
  AC50: > 30 µM
[5]
  AC50: > 30 µM
[6]
  AC50: > 30 µM

## O=[N+]([O-])O[C@@H]1CO[C@H]2[C@@H]1OC[C@@H]2O [ISOSORBIDE MONONITRATE]
Thromboxane A2 receptor
  AC50: > 30 µM
Acetylcholinesterase
  AC50: > 30 µM
Histamine H3 receptor
  AC50: > 30 µM
[1]
  AC50: > 30 µM
D(3) dopamine receptor
  AC50: > 30 µM
[2]
  AC50: > 30 µM
[3]
  AC50: > 30 µM
[4]
  AC50: > 30 µM
[5]
  AC50: > 30 µM
[6]
  AC50: > 30 µM

## Cc1oc(=O)oc1CN1CCN(c2cc3c(cc2F)c(=O)c(C(=O)O)c2n3C(C)S2)CC1 (centres undefined) [PRULIFLOXACIN]
Thromboxane A2 receptor
  AC50: > 30 µM
Acetylcholinesterase
  AC50: > 30 µM
Histamine H3 receptor
  AC50: > 30 µM
[1]
  AC50: > 30 µM
D(3) dopamine receptor
  AC50: > 30 µM
[2]
  AC50: > 30 µM
[3]
  AC50: > 30 µM
[4]
  AC50: > 30 µM
[5]
  AC50: > 30 µM
[6]
  AC50: > 30 µM

## Cc1cc(C)c(NC(=O)CN(CC(=O)O)CC(=O)O)c(C)c1Br [MEBROFENIN]
Thromboxane A2 receptor
  AC50: > 30 µM
Acetylcholinesterase
  AC50: > 30 µM
Histamine H3 receptor
  AC50: > 30 µM
[1]
  AC50: > 30 µM
D(3) dopamine receptor
  AC50: > 30 µM
[2]
  AC50: > 30 µM
[3]
  AC50: > 30 µM
[4]
  AC50: > 30 µM
[5]
  AC50: > 30 µM
[6]
  AC50: > 30 µM

## COC1=C(OC)C(=O)C(C/C=C(\C)CC/C=C(\C)CC/C=C(\C)CC/C=C(\C)CC/C=C(\C)CC/C=C(\C)CC/C=C(\C)CC/C=C(\C)CC/C=C(\C)CCC=C(C)C)=C(C)C1=O [UBIDECARENONE]
Thromboxane A2 receptor
  AC50: > 30 µM
Acetylcholinesterase
  AC50: > 30 µM
Histamine H3 receptor
  AC50: > 30 µM
[1]
  AC50: > 30 µM
D(3) dopamine receptor
  AC50: > 30 µM
[2]
  AC50: > 30 µM
[3]
  AC50: > 30 µM
[4]
  AC50: > 30 µM
[5]
  AC50: > 30 µM
[6]
  AC50: > 30 µM

## CC[C@H]1CN2CCc3cc(OC)c(OC)cc3[C@@H]2C[C@@H]1C[C@H]1NCCc2cc(OC)c(OC)cc21 [EMETINE]
Thromboxane A2 receptor
  AC50: > 30 µM
Acetylcholinesterase
  AC50: > 30 µM
Histamine H3 receptor
  AC50: > 30 µM
[1]
  AC50: > 30 µM
D(3) dopamine receptor
  AC50: > 30 µM
[2]
  AC50: > 30 µM
[3]
  AC50: > 30 µM
[4]
  AC50: > 30 µM
[5]
  AC50: 22.7 µM

## CN(C)CCc1c[nH]c2ccc(C[C@H]3COC(=O)N3)cc12 [ZOLMITRIPTAN]
[6]
  AC50: > 30 µM

## CN(C)CC/C=C1\c2ccccc2CSc2ccccc21 [DOTHIEPIN]
[6]
  AC50: 1.5 µM

## COc1ccccc1N1CCN(CC(O)COc2cccc3ccccc23)CC1 (centres undefined) [NAFTOPIDIL]
Thromboxane A2 receptor
  AC50: > 3 µM
Acetylcholinesterase
  AC50: 26.1 µM
Histamine H3 receptor
  AC50: > 30 µM
[1]
  AC50: > 30 µM
D(3) dopamine receptor
  AC50: 0.04 µM
[2]
  AC50: > 30 µM
[3]
  AC50: > 30 µM
[4]
  AC50: > 30 µM
[5]
  AC50: 0.0086 µM
[6]
  AC50: 0.87 µM

## COc1cc2nc(N3CCN(C(=O)c4ccco4)CC3)nc(N)c2cc1OC [PRAZOSIN]
Thromboxane A2 receptor
  AC50: > 30 µM
Acetylcholinesterase
  AC50: 23.7 µM
Histamine H3 receptor
  AC50: > 30 µM
[1]
  AC50: > 30 µM
D(3) dopamine receptor
  AC50: > 30 µM
[2]
  AC50: > 30 µM
[3]
  AC50: > 30 µM
[4]
  AC50: > 30 µM
[6]
  AC50: 3.73 µM

## CCCCCNC(=N)N/N=C/c1c[nH]c2ccc(OC)cc12 [TEGASEROD]
Thromboxane A2 receptor
  AC50: > 3 µM
Acetylcholinesterase
  AC50: > 30 µM
Histamine H3 receptor
  AC50: > 30 µM
[1]
  AC50: 2.65 µM
D(3) dopamine receptor
  AC50: 5.62 µM
[2]
  AC50: > 30 µM
[3]
  AC50: > 30 µM
[4]
  AC50: > 30 µM
[5]
  AC50: 0.04 µM
[6]
  AC50: 4.8 µM
